The target in assay [1] is T1, Beta-1 adrenergic receptor (Cavia porcellus, UniProt B0FL73). As to the kind of experiment: In vitro ability to block beta-1 adrenergic receptor in guinea pig right atria. The settings on record: read-out: pA2 (converted).
For assay [2], the target named is T1, Beta-1 adrenergic receptor. Kind of assay: The compound was tested in vitro for its ability to block Beta-1 adrenergic receptor n guinea pig trachea. Conditions: read-out: pA2 (converted). The format is tissue-based.
The nature of assay [3]: Cardioselectivity expressed as antilog of pA2 (atria)-pA2 (trachea).
Assay [4] concerns the target Beta-2 adrenergic receptor (Cavia porcellus). Kind of assay: The compound was tested in vitro for its ability to block beta-2-adrenergic receptor in guinea pig trachea. Conditions: read-out: pA2 (converted).
The target in assay [5] is Beta-2 adrenergic receptor (Cavia porcellus, UniProt Q8K4Z4). As to the kind of experiment: In vitro ability to block beta-2 adrenergic receptor in guinea pig trachea. Type of assay: tissue-based. The settings on record: read-out: pA2 (converted).
Sequence of Beta-2 adrenergic receptor (Q8K4Z4 whole entry): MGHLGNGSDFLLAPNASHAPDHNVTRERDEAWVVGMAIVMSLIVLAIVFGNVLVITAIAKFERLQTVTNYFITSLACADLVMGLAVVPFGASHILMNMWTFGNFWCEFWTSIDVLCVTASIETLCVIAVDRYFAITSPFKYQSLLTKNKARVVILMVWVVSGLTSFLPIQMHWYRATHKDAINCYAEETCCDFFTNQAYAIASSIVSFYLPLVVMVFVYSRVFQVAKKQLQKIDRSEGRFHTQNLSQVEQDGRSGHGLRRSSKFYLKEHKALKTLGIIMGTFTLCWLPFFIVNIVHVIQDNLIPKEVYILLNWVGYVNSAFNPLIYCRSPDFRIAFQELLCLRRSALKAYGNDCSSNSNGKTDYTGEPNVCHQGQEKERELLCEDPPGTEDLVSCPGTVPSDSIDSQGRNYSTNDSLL
For assay [6], the target named is Beta-1 adrenergic receptor (Cavia porcellus) (UniProt B0FL73). As to the kind of experiment: The compound was tested in vivo for its ability to block Beta-1 adrenergic receptor in guinea pig right atria at a duration of 3h. Type of assay: functional, organism-based.
Sequence of Beta-1 adrenergic receptor (Cavia porcellus) (B0FL73 1-467): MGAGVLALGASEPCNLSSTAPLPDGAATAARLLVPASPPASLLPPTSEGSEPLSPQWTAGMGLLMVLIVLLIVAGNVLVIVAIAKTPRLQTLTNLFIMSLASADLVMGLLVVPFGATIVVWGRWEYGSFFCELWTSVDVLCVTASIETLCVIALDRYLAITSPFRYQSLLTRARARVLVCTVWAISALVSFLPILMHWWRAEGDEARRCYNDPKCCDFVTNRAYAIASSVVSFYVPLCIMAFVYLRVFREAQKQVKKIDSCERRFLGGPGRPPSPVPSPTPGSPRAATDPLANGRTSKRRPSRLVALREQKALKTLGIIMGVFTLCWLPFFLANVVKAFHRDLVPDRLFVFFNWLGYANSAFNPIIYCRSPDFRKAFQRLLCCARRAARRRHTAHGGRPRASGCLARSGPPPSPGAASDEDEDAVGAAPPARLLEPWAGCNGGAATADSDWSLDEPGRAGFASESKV
The target is the same in assay [7]. As to the kind of experiment: In vivo inhibition of Beta-1 adrenergic receptor in guinea pig right atria after 40 min. Type of assay: functional, organism-based.
Assay [8] has the same target. Kind of assay: The compound was tested in vitro for its ability to block Beta-1 adrenergic receptor in guinea pig right atria; Inactive at 10E-5 M.
Assay [9] deals with Beta-2 adrenergic receptor (Cavia porcellus) (UniProt Q8K4Z4). Kind of assay: The compound was tested in vitro for its ability to block Beta-2 adrenergic receptor in guinea pig trachea; Inactive at 10E-5 M. The format is tissue-based.
Sequence of Beta-2 adrenergic receptor (Cavia porcellus) (UniProt Q8K4Z4) (Q8K4Z4 whole entry, looked up): as the sequence (Q8K4Z4 whole entry) above
The target in assay [10] is T1, Beta-1 adrenergic receptor. Kind of assay: The compound was tested in vitro for its ability to block Beta-1 adrenergic receptor in guinea pig right atria. The settings on record: read-out: pA2 (converted).
Assay [11] has as its target Beta-1 adrenergic receptor (Cavia porcellus) (UniProt B0FL73). Kind of assay: The compound was tested in vivo for its ability to block […] adrenergic receptor n guinea pig right atria at a duration of 3h. The format is organism-based.
The target is the same in assay [12].
Description: The compound was tested in vivo for its ability to block Beta-1 adrenergic receptor in guinea pig right atria at a duration of 40 min

Calls of active or inactive are those of the source. The rule behind the calls is not given here.

T1 sequence (B0FL73 whole entry): as the sequence (B0FL73 1-467) above

Regarding `CCOC(=O)c1ccc(CNCC(O)COc2ccccc2C)cc1` (stereo not given), the results for the Kb in [1] and in assay [2] were 251 nM and 1260 nM, respectively. This compound also registered a Cardio selectivity in assay [3] of 5.
In the case of `COc1ccc(CCOC(=O)CCNCC(O)COc2ccccc2)cc1OC` (stereo not given), the Kb in assay [1] is 100 nM; in assay [4], 251 nM.
As for `CCOC(=O)CCNCC(O)COc1cccc(OC)c1` (stereo not given), the Kb in assay [1] is 398 nM.
For `NCC(O)COc1ccccc1` (stereo not given), the Kb in assay [1] was 126 nM; in [5], 1260 nM. This compound displayed a Cardio selectivity in assay [3] of 10.
As to `O=C(CCNCC(O)COc1ccccc1)OCC(F)(F)F` (stereo not given), the Kb in [1] was 2000 nM.
Still for that read-out and setting: then `COC(=O)CCNCC(O)COc1ccccc1C` (stereo not given), with 31.6 nM; and `CCOC(=O)c1cccc(NCC(O)COc2ccccc2C)c1` (stereo not given), with 6310 nM.
In [6], `CCOC(=O)CCNCC(O)COc1ccccc1Cl` (stereo not given) yielded an In vivo duration of more than 60 min.
On to `CCOC(=O)c1ccc(NCC(O)COc2ccccc2C)cc1` (stereo not given), for which the Kb in [1] was 7940 nM.
As for `CCOC(=O)CCNCC(O)COc1ccccc1C` (stereo not given), the Kb in [1] is 31.6 nM. The In vivo duration in assay [7] stood at 14 min.
For `O=C(O)CNCC(O)COc1ccccc1` (stereo not given), the pA2 result in [8] and in assay [9] was “inactive” in each case.
For `O=C(CCNCC(O)COc1ccccc1)Oc1ccccc1` (stereo not given), the Kb in assay [10] is 398 nM. In [11], this compound had an In vivo duration of more than 60 min.
Consider `CCOC(=O)CCNCC(O)COc1cccc2ccccc12` (stereo not given), for which the Kb in assay [1] is 39.8 nM; in assay [5] it was 50.1 nM. The compound also registered an In vivo duration in assay [7] of 17 min.
`CCOC(=O)CC(C)(C)NCC(O)COc1ccccc1C` (stereo not given): the Kb was 3.16 nM in assay [1] and 7.94 nM in [5]. In [6], this compound returned an In vivo duration of more than 60 min.
With `O=C(CCNCC(O)COc1ccccc1)Oc1ccc(F)cc1` (stereo not given), the Kb in [10] was 2000 nM.
With `Cc1ccccc1OCC(O)CNCC(C)C` (stereo not given), the Kb in assay [1] was 2.51 nM; in assay [5], 6.31 nM.
Take `CCOC(=O)CCNCC(O)COc1ccccc1` (stereo not given): the In vivo duration in assay [12] amounted to 29 min.
Take `CCOC(=O)CCNCC(O)COc1ccc(OC)cc1` (stereo not given): the Kb in assay [1] was 1580 nM.
Take `COC(=O)CNCC(O)COc1ccccc1C` (stereo not given): the Kb in [1] is 3160 nM; in [5], 2000 nM.
For `CCOC(=O)C(NCC(O)COc1ccccc1C)C(=O)OCC` (stereo not given), the Kb in assay [1] is 1260 nM.
Regarding `NC(=O)CNCC(O)COc1cccc2ccccc12` (stereo not given), the Kb in assay [1] and in assay [5] was 631 nM in each case.
With `CCOC(=O)CCNCC(O)COc1ccc(Cl)cc1` (stereo not given), the pA2 result in assay [8] was “inactive”.
In the case of `O=C1CCCN1CC(O)COc1ccccc1` (stereo not given), the pA2 result in assay [8] and in [9] was “inactive” in each case.
For `CC(C)CNCC(O)COc1ccccc1` (stereo not given), the Kb was 10 nM in assay [1] and 39.8 nM in assay [5]. The Cardio selectivity in assay [3] worked out at 5.
In the case of `CCOC(=O)CCCNCC(O)COc1ccccc1C` (stereo not given), the In vivo duration was more than 60 min in assay [6] and 15 min in assay [7].
Turning to `CCOC(=O)CCCCNCC(O)COc1ccccc1C` (stereo not given), the Kb in [1] was 15.8 nM. This compound displayed an In vivo duration in assay [7] of 20 min.
Regarding `NCC(O)COc1cccc2ccccc12` (stereo not given), the Kb in assay [1] is 316 nM; in assay [5], 501 nM.
`CCOC(=O)CNCC(O)COc1cccc2ccccc12` (stereo not given) yielded an In vivo duration in assay [7] of 53 min.
As to `O=C1CCC(=O)N1CC(O)COc1ccccc1` (stereo not given), in assay [8], the pA2 result was “inactive”.
As to `CC(C)CNCC(O)COc1cccc2ccccc12` (stereo not given), the Kb is 2 nM in [1] and 1.26 nM in assay [5]. The In vivo duration was more than 60 min in [6] and 46 min in [7].
For the compound `COC(=O)CCNCC(O)COc1cccc2ccccc12` (stereo not given), the Kb in [5] was 100 nM.
Regarding `CCOC(=O)CCNCC(O)COc1cccc(C)c1` (stereo not given), the Kb in assay [1] was 200 nM.
The compound `CCOC(=O)CCNCC(O)COc1cccc(Cl)c1` (stereo not given) displayed an In vivo duration in assay [6] of more than 60 min.
Regarding `CCOC(=O)CCNCC(O)COc1c(C)cccc1C` (stereo not given), the figures for the Kb in [10] and in assay [5] were 794 nM and 1000 nM, respectively.
On to `CCOC(=O)CNCC(O)COc1ccccc1C` (stereo not given), for which the Kb in assay [1] was 1260 nM.

Source of the values: ChEMBL document CHEMBL1122202, “Ultra-short-acting beta-adrenergic receptor blocking agents. 1. (Aryloxy)propanolamines containing esters in the nitrogen substituent” (J Med Chem, 1982).
